# Test results as given in patent US20260053834A1, “COVALENT MODIFIERS OF AKT1 AND USES THEREOF” (Terremoto Biosciences, Inc., priority 2023, published 2026).
# Key:
# [1] = tested on: LAPC4 prostate cancer cells, which express the AKT1 E17K allele; test: Antiproliferative effects in LAPC4 cells (CellTiter Glo, 72 h); type: cell-based; conditions: Homo sapiens, LAPC4, 72 h, read-out: LAPC4 proliferation IC50: GeoMean IC50
# Procedure, shortened: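 IC50 values come from Hill-equation fitting of luminescence (cellular ATP) after 72 h compound exposure. Treated wells held 1,000 cells each, with compound delivered as DMSO dilutions. Culture medium was IMDM plus 12% FBS.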
# AKT2 = target: T1, AKT2 (Homo sapiens, UniProt P31751); test: Live cell target engagement by NanoBRET competitive probe displacement, AKT2; type: binding; conditions: transfected HEK293 cells, 2 h at 37° C., read-out: AKT2 IC50: GeoMean IC50
# T1 construct: expressed in transfected cells; host or cells: HEK293
# T1 sequence (P31751 whole entry): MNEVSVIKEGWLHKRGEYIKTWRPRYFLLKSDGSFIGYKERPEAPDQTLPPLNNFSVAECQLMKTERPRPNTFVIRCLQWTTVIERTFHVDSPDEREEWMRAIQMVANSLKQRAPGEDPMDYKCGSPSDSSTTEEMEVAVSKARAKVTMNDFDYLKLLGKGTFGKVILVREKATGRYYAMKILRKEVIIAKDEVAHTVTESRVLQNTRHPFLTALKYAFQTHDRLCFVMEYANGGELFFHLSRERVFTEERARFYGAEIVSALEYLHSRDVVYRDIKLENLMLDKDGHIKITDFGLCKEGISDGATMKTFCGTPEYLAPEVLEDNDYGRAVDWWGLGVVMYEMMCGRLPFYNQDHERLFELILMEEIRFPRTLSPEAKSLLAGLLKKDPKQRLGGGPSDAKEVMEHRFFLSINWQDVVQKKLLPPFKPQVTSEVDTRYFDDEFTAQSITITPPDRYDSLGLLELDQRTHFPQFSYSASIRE
# AKT1 WT = target: T2, AKT1 WT (Homo sapiens, UniProt P31749); test: Live cell target engagement by NanoBRET competitive probe displacement, AKT1 WT; type: binding; conditions: transfected HEK293 cells, 2 h at 37° C., read-out: AKT1 WT IC50: GeoMean IC50
# T2 construct: expressed in transfected cells; host or cells: HEK293
# T2 sequence (P31749 whole entry): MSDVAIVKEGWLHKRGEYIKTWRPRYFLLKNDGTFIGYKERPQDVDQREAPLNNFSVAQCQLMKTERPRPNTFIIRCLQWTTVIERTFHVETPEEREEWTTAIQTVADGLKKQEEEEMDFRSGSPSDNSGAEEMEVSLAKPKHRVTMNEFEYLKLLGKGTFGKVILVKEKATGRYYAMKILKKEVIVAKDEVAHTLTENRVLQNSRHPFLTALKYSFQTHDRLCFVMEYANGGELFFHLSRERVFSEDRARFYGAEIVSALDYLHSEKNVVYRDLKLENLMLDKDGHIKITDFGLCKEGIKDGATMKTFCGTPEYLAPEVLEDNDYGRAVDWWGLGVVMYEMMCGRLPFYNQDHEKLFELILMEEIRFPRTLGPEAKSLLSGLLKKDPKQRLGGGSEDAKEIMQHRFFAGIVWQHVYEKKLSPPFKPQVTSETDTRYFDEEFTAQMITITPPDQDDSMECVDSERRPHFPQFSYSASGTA
# AKT1 E17K = target: T3, AKT1 E17K (Homo sapiens, UniProt P31749, E17K); test: Live cell target engagement by NanoBRET competitive probe displacement, AKT1 E17K; type: binding; conditions: transfected HEK293 cells, 2 h at 37° C., read-out: AKT1 E17K IC50: GeoMean IC50
# T3 construct: expressed in transfected cells; host or cells: HEK293
# T3 sequence (P31749 whole entry E17K): as the sequence (P31749 whole entry) above, with E17K counted along it
SMILES,IC50 [1],IC50 (AKT2),IC50 (AKT1 WT),IC50 (AKT1 E17K)
"Nc1ncccc1-c1nc2ccc(-c3cnccn3)nc2n1-c1ccc2c(c1)CC[C@@H]2NC(=O)c1cc(F)c(O)c(C=O)c1 [Example 70, (S)—N-(5-(2-(2-aminopyridin-3-yl)-5-(pyrazin-2-yl)-3H-imidazo[4,5-b]pyridin-3-yl)-2,3-dihydro-1H-inden-1-yl)-3-fluoro-5-formyl-4-hydroxybenzamide]",100 to 2000 nM,100 to 2000 nM,10 to 100 nM,10 to 100 nM
"Cn1cc(-c2ccc3nc(-c4cccnc4N)n(-c4ccc5c(c4)CC[C@@H]5NC(=O)c4ccc(O)c(C=O)c4)c3n2)nn1 [Example 72, (S)—N-(5-(2-(2-aminopyridin-3-yl)-5-(1-methyl-1H-1,2,3-triazol-4-yl)-3H-imidazo[4,5-b]pyridin-3-yl)-2,3-dihydro-1H-inden-1-yl)-3-formyl-4-hydroxybenzamide]",100 to 2000 nM,100 to 2000 nM,10 to 100 nM,10 to 100 nM
"Nc1ncccc1-c1nc2ccc(-c3cnccn3)nc2n1-c1ccc2c(c1)CC[C@@H]2NC(=O)c1cc(C=O)c2[nH]ncc2c1 [Example 73, (S)—N-(5-(2-(2-aminopyridin-3-yl)-5-(pyrazin-2-yl)-3H-imidazo[4,5-b]pyridin-3-yl)-2,3-dihydro-1H-inden-1-yl)-7-formyl-1H-indazole-5-carboxamide]",10 to 100 nM,100 to 2000 nM,10 to 100 nM,< 10 nM
"Nc1ncccc1-c1nc2ccc(-c3ccccc3)nc2n1-c1ccc2c(c1)C(=O)C[C@@H]2NC(=O)c1ccc(O)c(C=O)c1 [Example 74, N-[(1S)-5-[2-(2-aminopyridin-3-yl)-5-phenylimidazo[4,5-b]pyridin-3-yl]-3-oxo-1,2-dihydroinden-1-yl]-3-formyl-4-hydroxybenzamide]",100 to 2000 nM,100 to 2000 nM,100 to 2000 nM,10 to 100 nM
"N#Cc1ccc2nc(-c3cccnc3N)n(-c3ccc4c(c3)CC[C@@H]4NC(=O)c3ccc(O)c(C=O)c3)c2n1 [Example 79, (S)—N-(5-(2-(2-aminopyridin-3-yl)-5-cyano-3H-imidazo[4,5-b]pyridin-3-yl)-2,3-dihydro-1H-inden-1-yl)-3-formyl-4-hydroxybenzamide]",≥ 2000 nM,≥ 2000 nM,100 to 2000 nM,100 to 2000 nM
"Nc1ncccc1-c1nc2ccc(-n3cccn3)nc2n1-c1ccc2c(c1)CC[C@@H]2NC(=O)c1cc(F)c(O)c(C=O)c1 [Example 81, N-[(1S)-5-[2-(2-aminopyridin-3-yl)-5-(pyrazol-1-yl)imidazo[4,5-b]pyridin-3-yl]-2,3-dihydro-1H-inden-1-yl]-3-fluoro-5-formyl-4-hydroxybenzamide]",100 to 2000 nM,100 to 2000 nM,10 to 100 nM,10 to 100 nM
"Nc1ncccc1-c1nc2ccc(-n3cccn3)nc2n1-c1ccc2c(c1)CC[C@@H]2NC(=O)c1cc(C=O)c(O)c(F)c1F [Example 82, (S)—N-(5-(2-(2-aminopyridin-3-yl)-5-(1H-pyrazol-1-yl)-3H-imidazo[4,5-b]pyridin-3-yl)-2,3-dihydro-1H-inden-1-yl)-2,3-difluoro-5-formyl-4-hydroxybenzamide]",10 to 100 nM,10 to 100 nM,10 to 100 nM,10 to 100 nM
"Nc1ncccc1-c1nc2ccc(-n3cccn3)nc2n1-c1ccc2c(c1)C(=O)C[C@@H]2NC(=O)c1ccc(O)c(C=O)c1 [Example 85, N-[(1S)-5-[2-(2-aminopyridin-3-yl)-5-(pyrazol-1-yl)imidazo[4,5-b]pyridin-3-yl]-3-oxo-1,2-dihydroinden-1-yl]-3-formyl-4-hydroxybenzamide]",≥ 2000 nM,100 to 2000 nM,100 to 2000 nM,100 to 2000 nM

# Next, values leading:
IC50 [1],IC50 (AKT2),IC50 (AKT1 WT),IC50 (AKT1 E17K),SMILES
10 to 100 nM,100 to 2000 nM,10 to 100 nM,10 to 100 nM,"COc1cnc(-c2ccc3nc(-c4cccnc4N)n(-c4ccc5c(c4)CC[C@@H]5NC(=O)c4ccc(O)c(C=O)c4)c3n2)cn1 [Example 71, (S)—N-(5-(2-(2-aminopyridin-3-yl)-5-(5-methoxypyrazin-2-yl)-3H-imidazo[4,5-b]pyridin-3-yl)-2,3-dihydro-1H-inden-1-yl)-3-formyl-4-hydroxybenzamide]"
100 to 2000 nM,100 to 2000 nM,10 to 100 nM,10 to 100 nM,"Nc1ncccc1-c1nc2ccc(-n3ccc(F)n3)nc2n1-c1ccc2c(c1)CC[C@@H]2NC(=O)c1ccc(O)c(C=O)c1 [Example 75, (S)—N-(5-(2-(2-aminopyridin-3-yl)-5-(3-fluoro-1H-pyrazol-1-yl)-3H-imidazo[4,5-b]pyridin-3-yl)-2,3-dihydro-1H-inden-1-yl)-3-formyl-4-hydroxybenzamide]"
100 to 2000 nM,100 to 2000 nM,100 to 2000 nM,10 to 100 nM,"Nc1ncccc1-c1nc2ccc(-n3cc(F)cn3)nc2n1-c1ccc2c(c1)CC[C@@H]2NC(=O)c1ccc(O)c(C=O)c1 [Example 76, N-[(1S)-5-[2-(2-aminopyridin-3-yl)-5-(4-fluoropyrazol-1-yl)imidazo[4,5-b]pyridin-3-yl]-2,3-dihydro-1H-inden-1-yl]-3-formyl-4-hydroxybenzamide]"
100 to 2000 nM,100 to 2000 nM,10 to 100 nM,10 to 100 nM,"Cc1cnn(-c2ccc3nc(-c4cccnc4N)n(-c4ccc5c(c4)CC[C@@H]5NC(=O)c4ccc(O)c(C=O)c4)c3n2)c1 [Example 77, (S)—N-(5-(2-(2-aminopyridin-3-yl)-5-(4-methyl-1H-pyrazol-1-yl)-3H imidazo[4,5-b]pyridin-3-yl)-2,3-dihydro-1H-inden-1-yl)-3-formyl-4-hydroxybenzamide]"
100 to 2000 nM,100 to 2000 nM,100 to 2000 nM,10 to 100 nM,"Nc1ncccc1-c1nc2ccc(-n3cc(Cl)cn3)nc2n1-c1ccc2c(c1)CC[C@@H]2NC(=O)c1ccc(O)c(C=O)c1 [Example 78, N-[(1S)-5-[2-(2-aminopyridin-3-yl)-5-(4-chloropyrazol-1-yl)imidazo[4,5-b]pyridin-3-yl]-2,3-dihydro-1H-inden-1-yl]-3-formyl-4-hydroxybenzamide]"
100 to 2000 nM,100 to 2000 nM,10 to 100 nM,10 to 100 nM,"COc1cncc(-c2ccc3nc(-c4cccnc4N)n(-c4ccc5c(c4)CC[C@@H]5NC(=O)c4ccc(O)c(C=O)c4)c3n2)n1 [Example 80, N-[(1S)-5-[2-(2-aminopyridin-3-yl)-5-(6-methoxypyrazin-2-yl)imidazo[4,5-b]pyridin-3-yl]-2,3-dihydro-1H-inden-1-yl]-3-formyl-4-hydroxybenzamide]"
100 to 2000 nM,100 to 2000 nM,10 to 100 nM,10 to 100 nM,"COc1cnn(-c2ccc3nc(-c4cccnc4N)n(-c4ccc5c(c4)CC[C@@H]5NC(=O)c4ccc(O)c(C=O)c4)c3n2)c1 [Example 83, N-[(1S)-5-[2-(2-aminopyridin-3-yl)-5-(4-methoxypyrazol-1-yl)imidazo[4,5-b]pyridin-3-yl]-2,3-dihydro-1H-inden-1-yl]-3-formyl-4-hydroxybenzamide]"
100 to 2000 nM,100 to 2000 nM,100 to 2000 nM,10 to 100 nM,"Nc1ncccc1-c1nc2ccc(-n3cc(C=O)cn3)nc2n1-c1ccc2c(c1)CC[C@@H]2NC(=O)c1ccc(O)c(C=O)c1 [Example 84, N-[(1S)-5-[2-(2-aminopyridin-3-yl)-5-(4-formylpyrazol-1-yl)imidazo[4,5-b]pyridin-3-yl]-2,3-dihydro-1H-inden-1-yl]-3-formyl-4-hydroxybenzamide]"
